Source: patent publication US20100056516A1 (priority 2006, published 2010)

Assays:
HIV integrase = HIV integrase (Human immunodeficiency virus type 1 group M subtype B, UniProt P04585); test: integrase strand transfer assay (STA); type: biochemical; settings: integrase strand transfer; read-out: IC50 in the STA assay
HXB2 virus = test: microbe, parasite or virus in culture; type: cell-based, HIV; settings: Human immunodeficiency virus 1, HXB2, HeLaP4-2, read-out: antiviral IC50 (SCIA-B)
Method in brief: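 Single-cycle infectivity assay in HeLa P4-2 cells measuring inhibition of acute HIV infection, using HXB2 virus.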

Row | Structure (SMILES) | IC50 (HIV integrase) [µM] | IC50 (HXB2 virus) [µM]
1 | O=c1cc(O)c2c(-c3cccc(O)c3)ccnc2n1O [Example 226, 1,4-dihydroxy-5-(3-hydroxyphenyl)-1,8-naphthyridin-2(1H)-one] | < 50 | < 100
2 | NCc1cccc(-c2cccc(-c3ccnc4c3c(O)cc(=O)n4O)c2)c1 [Example 227, 5-[3′-(aminomethyl)biphenyl-3-yl]-1,4-dihydroxy-1,8-naphthyridin-2-(1H)-one] | < 50 | < 100
3 | NCc1ccc(-c2cccc(-c3ccnc4c3c(O)cc(=O)n4O)c2)cc1 [Example 228, 5-[4′-(aminomethyl)biphenyl-3-yl]-1,4-dihydroxy-1,8-naphthyridin-2(1H)-one] | < 50 | < 100
4 | Cc1cc(C)n(-c2cccc(-c3ccnc4c3c(O)cc(=O)n4O)c2)n1 [Example 229, 5-[3-(3,5-dimethyl-1H-pyrazol-1-yl)phenyl]-1,4-dihydroxy-1,8-naphthyridin-2(1H)-one] | < 50 | < 100
5 | NCc1ccc(-c2cccc(Cc3cc(=O)n(O)c4ncccc34)c2)cc1 [Example 232, 4-{[4′-(aminomethyl)biphenyl-3-yl]methyl}-1-hydroxy-1,8-naphthyridin-2(1H)-one] | < 50 | < 100
6 | Nc1cccc(-c2cccc(Cc3cc(=O)n(O)c4ncccc34)c2)c1 [Example 233, 4-[(3′-aminobiphenyl-3-yl)methyl]-1-hydroxy-1,8-naphthyridin-2(1H)-one] | < 50 | < 100
7 | Nc1ccc(-c2cccc(Cc3cc(=O)n(O)c4ncccc34)c2)cc1 [Example 234, 4-[(4′-aminobiphenyl-3-yl)methyl]-1-hydroxy-1,8-naphthyridin-2(1H)-one] | < 50 | < 100
8 | O=c1cc(-c2cccc(O)c2)c2cccnc2n1O [Example 237, 1-hydroxy-4-(3-hydroxyphenyl)-1,8-naphthyridin-2(1H)-one] | < 50 | < 100
9 | NC1(c2cccc(-c3ccc(-c4cc(=O)n(O)c5ncccc45)cc3)c2)CC1 [Example 238, 4-[3′-(1-aminocyclopropyl)biphenyl-4-yl]-1-hydroxy-1,8-naphthyridin-2(1H)-one] | < 50 | < 100
10 | Nc1ccc(Cc2ccc(-c3cc(=O)n(O)c4ncccc34)cc2)cc1 [Example 239, 4-[4-(4-aminobenzyl)phenyl]-1-hydroxy-1,8-naphthyridin-2(1H)-one] | < 50 | < 100
11 | CCOC(=O)c1c(CCc2ccccc2)c2cccnc2n(O)c1=O [Example 240, ethyl 1-hydroxy-2-oxo-4-(2-phenylethyl)-1,2-dihydro-1,8-naphthyridine-3-carboxylate] | < 50 | < 100
12 | CCOC(=O)c1c(-c2ccc(-c3ccc(CN)cc3)cc2)c2cccnc2n(O)c1=O [Example 243, Ethyl 4-[4′-(aminomethyl)biphenyl-4-yl]-1-hydroxy-2-oxo-1,2-dihydro-1,8-naphthyridine-3-carboxylate] | < 50 | < 100
13 | O=c1cc(-c2cn[nH]c2)c2cccnc2n1O [Example 244, 1-Hydroxy-4-(pyrazol-4-yl)-1,8-naphthyridin-2-(1H)-one] | < 50 | < 100
14 | O=c1cc(-c2cnc3[nH]ccc3c2)c2cccnc2n1O [Example 245, 1-hydroxy-4-(1H-pyrrolo[2,3-b]pyridin-5-yl)-1,8-naphthyridin-2(1H)-one bistrifluoroacetate] | < 50 | < 100
15 | O=c1cc(C2=Cc3ccccc3CC2)c2cccnc2n1O [Example 246, 4-(3,4-dihydronaphthalen-2-yl)-1-hydroxy-1,8-naphthyridin-2(1H)-one] | < 50 | < 100
16 | O=C(c1cc(=O)n(O)c2ncccc12)N1CCc2ccccc2C1 [Example 247, 4-(3,4-dihydroisoquinolin-2(1H)-ylcarbonyl)-1-hydroxy-1,8-naphthyridin-2(1H)-one] | < 50 | < 100
17 | CCOC(=O)c1c(-c2cccc(-c3ccc(CN)cc3)c2)c2cc(-c3ccccc3OC)cnc2n(O)c1=O [Example 248, ethyl 4-[4′-(aminomethyl)biphenyl-3-yl]-1-hydroxy-6-(2-methoxyphenyl)-2-oxo-1,2-dihydro-1,8-naphthyridine-3-carboxylate] | < 50 | < 100
18 | CCOC(=O)c1c(O)c2c(Cc3cccc(-c4cccc(CN)c4)c3)ccnc2n(O)c1=O [Example 249, ethyl 5-{[3′-(aminomethyl)biphenyl-3-yl]methyl}-1,4-dihydroxy-2-oxo-1,2-dihydro-1,8-naphthyridine-3-carboxylate] | < 50 | < 100

Row | Structure (SMILES) | IC50 (HIV integrase) [µM] | IC50 (HXB2 virus) [µM]
19 | Nc1cnc2c(c1)c(O)c(-c1ccccc1)c(=O)n2O [Example 250, 6-amino-1,4-dihydroxy-3-phenyl-1,8-naphthyridin-2(1H)-one] | < 50 | < 100
20 | Nc1cccc(-c2ccc3c(c2)CN(c2cc(=O)n(O)c4ncccc24)CC3)c1 [Example 251, 4-[7-(3-aminophenyl)-3,4-dihydroisoquinolin-2(1H)-yl]-1-hydroxy-1,8-naphthyridin-2(1H)-one] | < 50 | < 100
21 | NCc1cccc(-c2ccc3c(c2)CN(c2cc(=O)n(O)c4ncccc24)CC3)c1 [Example 252, 4-[7-(3-aminomethylphenyl)-3,4-dihydroisoquinolin-2(1H)-yl]-1-hydroxy-1,8-naphthyridin-2(1H)-one] | < 50 | < 100
22 | O=c1cc(N2CCc3ccc(-c4ccncc4)cc3C2)c2cccnc2n1O [Example 253, 1-hydroxy-4-(7-pyridin-4-yl-3,4-dihydroisoquinolin-2(1H)-yl)-1,8-naphthyridin-2(1H)-one] | < 50 | < 100
23 | Nc1ccc(-c2ccc3c(c2)CN(c2cc(=O)n(O)c4ncccc24)CC3)cc1 [Example 254, 4-[7-(4-aminophenyl)-3,4-dihydroisoquinolin-2(1H)-yl]-1-hydroxy-1,8-naphthyridin-2(1H)-one] | < 50 | < 100
24 | O=c1cc(N2Cc3ccc(-c4ccccc4)cc3C2)c2cccnc2n1O [Example 256, 1-hydroxy-4-(5-phenyl-1,3-dihydro-2H-isoindol-2-yl)-1,8-naphthyridin-2(1H)-one] | < 50 | < 100
25 | CCOC(=O)c1c(N2CCc3ccc(-c4ccc(F)cc4)cc3C2)c2cccnc2n(O)c1=O [Example 258, ethyl 4-[7-(4-fluorophenyl)-3,4-dihydroisoquinolin-2(1H)-yl]-1-hydroxy-2-oxo-1,2-dihydro-1,8-naphthyridine-3-carboxylate] | > 50 | < 100
26 | CCOC(=O)c1c(N2CCc3ccc(-c4cccc(F)c4)cc3C2)c2cccnc2n(O)c1=O [Example 259, ethyl 4-[7-(3-fluorophenyl)-3,4-dihydroisoquinolin-2(1H)-yl]-1-hydroxy-2-oxo-1,2-dihydro-1,8-naphthyridine-3-carboxylate] | > 50 | < 100
27 | O=C(NCCc1ccccc1)c1ccc2c(c1)CN(c1cc(=O)n(O)c3ncccc13)CC2 [Example 260, 4-[7-(phenylethylaminocarbonyl)-3,4-dihydroisoquinolin-2(1H)-yl]-1-hydroxy-1,8-naphthyridin-2(1H)-one] | < 50 | < 100
28 | O=C(NCc1ccccc1)c1ccc2c(c1)CCN(c1cc(=O)n(O)c3ncccc13)C2 [Example 261, 4-[6-(benzylaminocarbonyl)-3,4-dihydroisoquinolin-2(1H)-yl]-1-hydroxy-1,8-naphthyridin-2(1H)-one] | < 50 | < 100
29 | CCOC(=O)c1c(-c2ccc(CCc3ccncc3)cc2)c2cccnc2n(O)c1=O [Example 262, Ethyl 4-[4-(2-pyridin-4-ylethyl)phenyl]-hydroxy-2-oxo-1,2-dihydro-1,8-naphthyridin-3-carboxylate] | < 50 | < 100
30 | CCOC(=O)c1c(-c2cc(CCc3ccccc3F)cc(-c3ccc(CN)cc3)c2)c2cccnc2n(O)c1=O [Example 263, ethyl 4-[4′-aminomethyl-5-(2-fluorophenethyl)biphenyl-3-yl]1-hydroxy-2-oxo-1,2-dihydro-1,8-naphthyridine-3-carboxylate] | < 50 | < 100
31 | CCOC(=O)c1c(-c2ccc(CCc3ccc(N)cc3)cc2)c2cccnc2n(O)c1=O [Example 264, ethyl 4-{4-[2-(4-aminophenyl)ethyl]phenyl}1-hydroxy-2-oxo-1,2,-dihydro-1,8-naphthyridin-3-carboxylate] | < 50 | < 100
32 | O=c1c2ccccc2c2cccnc2n1O [Example 265, 5-Hydroxybenzo[c]-1,8-naphthyridin-6(5B)-one] | < 50 | < 100
33 | CNC(=O)c1ccc2c(=O)n(O)c3ncccc3c2c1 [Example 266, 5-Hydroxy-N-methyl-6-oxo-5,6-dihydrobenzo[c]-1,8-naphthyridine-9-carboxamide] | < 50 | < 100
34 | O=c1c2ccc(-c3ccccc3)cc2c2cccnc2n1O [Example 267, 5-Hydroxy-9-phenylbenzo[c]-1,8-naphthyridin-6(5.H)-one] | < 50 | < 100
35 | O=c1c2cc(-c3ccccc3)ccc2c2cccnc2n1O [Example 268, 5-Hydroxy-8-phenylbenzo[c]-1,8-naphthyridin-6(5H)-one] | < 50 | < 100
